The source made the active and inactive calls. No cut-off for these calls is given here.
What was measured:
[1] = target: Cysteinyl leukotriene receptor 1 (Homo sapiens) (UniProt Q9Y271); experiment: Inhibition of Leukotriene, Cysteinyl CysLT1 at 10 µM in the Eurofins-Panlabs radioligand binding assay (Eurofins_assay_250460); parameters: ligand concentration 0.3 nM, non-specific ligand with concentration 0.3 µM Leukotriene D4, incubation time 30 min, incubation temperature 25 °C; conditions: Compound concentration 10.0 uM
[2] = target: Serine/threonine-protein kinase TAO3 (Homo sapiens, UniProt Q9H2K8); experiment: TAO3(TAO3LGY1) Takeda global kinase panel
[3] = target: GABA-A receptor; anion channel (Rattus norvegicus) (UniProt O09028+P15431+P18506+P18508+P19969+P20236+P23574+P23576+P28471+P28473+P30191+P62813+P63079+P63138+Q91ZM7+Q9ES14); experiment: Inhibition of GABAA, Muscimol, Central at 10 µM in the Eurofins-Panlabs radioligand binding assay (Eurofins_assay_226500); type: protein-complex assay; conditions: Compound concentration 10.0 uM
[4] = target: Mitogen-activated protein kinase kinase kinase 13 (Homo sapiens, UniProt O43283); experiment: LZK(M313LGRJ) Takeda global kinase panel
[5] = target: Bone morphogenetic protein receptor type-1B (Homo sapiens, UniProt O00238); experiment: BMPR1B(BM1BLGF1) Takeda global kinase panel
[6] = target: Serine/threonine-protein kinase N1 (Homo sapiens, UniProt Q16512); experiment: PKN1 [PRK1(PKN1LGY1)] Takeda global kinase panel
[7] = target: Tyrosine-protein kinase Fes/Fps (Homo sapiens, UniProt P07332); experiment: Fes(FES1LHY1) Takeda global kinase panel
[8] = target: Serine/threonine-protein kinase SBK1 (Homo sapiens, UniProt Q52WX2); experiment: SBK(SBK1LGY1) Takeda global kinase panel
[9] = target: Death-associated protein kinase 2 (Homo sapiens, UniProt Q9UIK4); experiment: DAPK2(DAP2LGF1) Takeda global kinase panel
Death-associated protein kinase 2, sequence (Q9UIK4 whole entry): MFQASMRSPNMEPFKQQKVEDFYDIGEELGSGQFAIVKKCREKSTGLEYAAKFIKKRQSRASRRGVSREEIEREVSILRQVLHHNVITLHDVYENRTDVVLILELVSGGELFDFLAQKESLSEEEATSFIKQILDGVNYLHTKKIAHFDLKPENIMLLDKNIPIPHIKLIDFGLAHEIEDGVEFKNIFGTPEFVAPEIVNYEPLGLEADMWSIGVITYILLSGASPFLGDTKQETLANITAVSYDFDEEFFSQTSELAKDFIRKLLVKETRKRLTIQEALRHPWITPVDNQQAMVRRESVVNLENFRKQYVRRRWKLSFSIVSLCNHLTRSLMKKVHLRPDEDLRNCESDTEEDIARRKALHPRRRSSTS

[10] = target: Serine/threonine-protein kinase TAO2 (Homo sapiens, UniProt Q9UL54); experiment: TAO2(TAO2LGF1) Takeda global kinase panel
[11] = target: Sigma non-opioid intracellular receptor 1 (Homo sapiens) (UniProt Q99720); experiment: Sigma 1 Eurofins-Panlabs radioligand binding assay; parameters: ligand concentration 15 nM; conditions: Compound concentration 10.0 uM
Sigma non-opioid intracellular receptor 1 (Homo sapiens), sequence (Q99720 whole entry): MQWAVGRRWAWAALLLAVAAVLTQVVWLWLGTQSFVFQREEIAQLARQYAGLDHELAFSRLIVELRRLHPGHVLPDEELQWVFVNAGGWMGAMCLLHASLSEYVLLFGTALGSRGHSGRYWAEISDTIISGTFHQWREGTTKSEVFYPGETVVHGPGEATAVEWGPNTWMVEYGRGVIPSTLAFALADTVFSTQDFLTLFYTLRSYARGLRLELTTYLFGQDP

[12] = target: Tyrosine-protein kinase TXK (Homo sapiens, UniProt P42681); experiment: TXK(TXK1CGD5) Takeda global kinase panel
[13] = target: Death-associated protein kinase 1 (Homo sapiens, UniProt P53355); experiment: DAPK1(DAP1LGF1) Takeda global kinase panel
[14] = target: 3-phosphoinositide-dependent protein kinase 1 (Homo sapiens, UniProt O15530); experiment: PDK1(PDP1LGA1) Takeda global kinase panel
[15] = target: Mitogen-activated protein kinase 10 (Homo sapiens, UniProt P53779); experiment: JNK3(MP10LGF2) Takeda global kinase panel
[16] = target: Macrophage colony-stimulating factor 1 receptor (Homo sapiens, UniProt P07333); experiment: FmS [CSFR(CSF1LGC1)] Takeda global kinase panel
[17] = target: Rho-associated protein kinase 1 (Homo sapiens, UniProt Q13464); experiment: ROCK1(ROC1LGY1) Takeda global kinase panel
Rho-associated protein kinase 1, sequence (Q13464 whole entry): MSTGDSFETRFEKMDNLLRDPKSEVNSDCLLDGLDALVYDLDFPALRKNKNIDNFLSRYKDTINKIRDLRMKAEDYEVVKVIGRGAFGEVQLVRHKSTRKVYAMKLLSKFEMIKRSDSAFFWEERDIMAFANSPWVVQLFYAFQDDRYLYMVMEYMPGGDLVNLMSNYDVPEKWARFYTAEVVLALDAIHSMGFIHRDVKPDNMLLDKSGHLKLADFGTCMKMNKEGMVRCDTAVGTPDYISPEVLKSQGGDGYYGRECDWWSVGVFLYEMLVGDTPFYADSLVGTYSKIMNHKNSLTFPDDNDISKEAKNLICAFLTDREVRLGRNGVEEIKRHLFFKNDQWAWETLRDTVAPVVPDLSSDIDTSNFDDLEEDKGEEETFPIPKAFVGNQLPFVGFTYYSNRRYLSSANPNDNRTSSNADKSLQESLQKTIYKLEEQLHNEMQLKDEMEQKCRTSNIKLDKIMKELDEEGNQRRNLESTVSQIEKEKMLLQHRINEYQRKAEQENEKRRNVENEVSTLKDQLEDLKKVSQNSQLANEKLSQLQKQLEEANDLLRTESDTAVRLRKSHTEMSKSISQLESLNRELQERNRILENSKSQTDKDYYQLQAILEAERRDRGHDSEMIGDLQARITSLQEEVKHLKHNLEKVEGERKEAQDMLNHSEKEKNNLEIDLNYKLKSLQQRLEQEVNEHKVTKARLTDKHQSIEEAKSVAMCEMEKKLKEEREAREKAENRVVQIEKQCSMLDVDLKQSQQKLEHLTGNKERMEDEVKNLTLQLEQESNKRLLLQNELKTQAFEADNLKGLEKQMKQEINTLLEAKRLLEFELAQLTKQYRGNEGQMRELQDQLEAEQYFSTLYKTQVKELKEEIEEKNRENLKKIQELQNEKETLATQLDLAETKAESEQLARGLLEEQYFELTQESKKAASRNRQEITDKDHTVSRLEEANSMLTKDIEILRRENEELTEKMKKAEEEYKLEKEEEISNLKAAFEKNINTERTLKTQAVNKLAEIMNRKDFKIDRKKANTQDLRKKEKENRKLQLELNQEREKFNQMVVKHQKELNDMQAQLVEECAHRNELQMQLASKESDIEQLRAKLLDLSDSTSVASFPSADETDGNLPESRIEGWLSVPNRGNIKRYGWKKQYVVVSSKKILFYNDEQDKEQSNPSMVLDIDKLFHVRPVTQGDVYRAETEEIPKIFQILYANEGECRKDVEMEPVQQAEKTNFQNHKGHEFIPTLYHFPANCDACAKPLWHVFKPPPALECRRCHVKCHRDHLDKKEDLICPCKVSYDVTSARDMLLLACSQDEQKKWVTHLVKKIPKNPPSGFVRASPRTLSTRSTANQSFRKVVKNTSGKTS

[18] = target: Cannabinoid receptor 1 (Homo sapiens) (UniProt P21554); experiment: Inhibition of Cannabinoid CB1 at compound concentration of 10.0 uM in the Eurofins-Panlabs radioligand binding assay (Eurofins_assay_217050); parameters: ligand concentration 2 nM; conditions: Compound concentration 10.0 uM
[19] = target: Wee1-like protein kinase 2 (Homo sapiens, UniProt P0C1S8); experiment: Wee1B(WE1BLGF1) Takeda global kinase panel
Wee1-like protein kinase 2, sequence (P0C1S8 whole entry): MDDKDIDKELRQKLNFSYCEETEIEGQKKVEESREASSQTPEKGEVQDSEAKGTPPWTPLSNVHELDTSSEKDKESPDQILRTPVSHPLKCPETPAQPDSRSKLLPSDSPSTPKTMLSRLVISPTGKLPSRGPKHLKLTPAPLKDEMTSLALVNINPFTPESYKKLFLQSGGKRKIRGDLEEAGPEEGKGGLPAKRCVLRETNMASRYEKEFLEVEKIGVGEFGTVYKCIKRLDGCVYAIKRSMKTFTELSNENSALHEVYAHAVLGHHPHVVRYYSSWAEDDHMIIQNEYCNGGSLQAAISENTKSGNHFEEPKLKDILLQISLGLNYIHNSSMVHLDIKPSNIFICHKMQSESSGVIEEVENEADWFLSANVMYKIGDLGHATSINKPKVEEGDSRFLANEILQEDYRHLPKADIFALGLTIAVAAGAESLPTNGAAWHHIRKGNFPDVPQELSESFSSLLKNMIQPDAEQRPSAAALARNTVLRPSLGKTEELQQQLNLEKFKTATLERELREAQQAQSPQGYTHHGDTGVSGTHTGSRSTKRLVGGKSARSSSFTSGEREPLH

[20] = target: Mitogen-activated protein kinase kinase kinase kinase 5 (Homo sapiens, UniProt Q9Y4K4); experiment: KHS1(M4K5LGY1) Takeda global kinase panel
Mitogen-activated protein kinase kinase kinase kinase 5, sequence (Q9Y4K4 whole entry, the tested form may be a part): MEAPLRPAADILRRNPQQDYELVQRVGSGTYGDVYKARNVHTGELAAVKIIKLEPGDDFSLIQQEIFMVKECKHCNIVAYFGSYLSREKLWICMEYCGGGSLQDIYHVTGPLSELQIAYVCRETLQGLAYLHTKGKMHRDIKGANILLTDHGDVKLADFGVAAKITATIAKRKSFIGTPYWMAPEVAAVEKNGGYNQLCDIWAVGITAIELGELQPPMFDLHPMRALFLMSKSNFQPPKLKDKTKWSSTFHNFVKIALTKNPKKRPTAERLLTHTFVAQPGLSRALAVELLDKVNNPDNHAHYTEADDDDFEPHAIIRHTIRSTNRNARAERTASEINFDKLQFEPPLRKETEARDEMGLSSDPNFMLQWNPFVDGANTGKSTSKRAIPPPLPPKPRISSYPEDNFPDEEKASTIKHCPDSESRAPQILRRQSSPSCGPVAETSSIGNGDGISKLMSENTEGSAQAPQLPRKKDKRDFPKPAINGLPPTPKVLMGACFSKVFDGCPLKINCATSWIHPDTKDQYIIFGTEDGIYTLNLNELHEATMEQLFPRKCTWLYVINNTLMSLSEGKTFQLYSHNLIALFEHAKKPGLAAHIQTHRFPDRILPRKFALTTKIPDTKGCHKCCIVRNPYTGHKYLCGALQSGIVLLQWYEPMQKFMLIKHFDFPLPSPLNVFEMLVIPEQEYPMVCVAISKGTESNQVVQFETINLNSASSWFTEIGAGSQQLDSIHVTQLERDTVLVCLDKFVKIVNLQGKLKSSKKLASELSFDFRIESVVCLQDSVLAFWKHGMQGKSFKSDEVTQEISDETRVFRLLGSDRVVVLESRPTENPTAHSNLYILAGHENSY

[21] = target: Mixed lineage kinase domain-like protein (Homo sapiens, UniProt Q8NB16); experiment: MLKL(MLKLPHY1) Takeda global kinase panel
[22] = target: Protein-tyrosine kinase 6 (Homo sapiens, UniProt Q13882); experiment: Brk(PTK6LGY1) Takeda global kinase panel
Protein-tyrosine kinase 6, sequence (Q13882 whole entry): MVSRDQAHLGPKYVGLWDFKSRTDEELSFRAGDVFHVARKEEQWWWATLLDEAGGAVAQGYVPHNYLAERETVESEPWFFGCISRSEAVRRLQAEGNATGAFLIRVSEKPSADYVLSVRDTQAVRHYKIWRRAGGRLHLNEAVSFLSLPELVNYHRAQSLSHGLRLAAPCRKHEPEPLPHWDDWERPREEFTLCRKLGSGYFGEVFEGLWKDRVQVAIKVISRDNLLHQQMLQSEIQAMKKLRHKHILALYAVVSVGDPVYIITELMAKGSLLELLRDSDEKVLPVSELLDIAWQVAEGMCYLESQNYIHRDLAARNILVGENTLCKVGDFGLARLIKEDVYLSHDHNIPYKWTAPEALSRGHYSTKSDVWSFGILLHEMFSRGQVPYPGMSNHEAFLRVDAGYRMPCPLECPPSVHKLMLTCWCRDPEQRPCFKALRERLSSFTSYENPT

[23] = target: Protein kinase C theta type (Homo sapiens, UniProt Q04759); experiment: PKCtheta(PRKQLGM5) Takeda global kinase panel
[24] = target: Receptor-interacting serine/threonine-protein kinase 1 (Mus musculus, UniProt Q60855); experiment: TR-FRET (mouse RIPK1)
[25] = target: Serine/threonine-protein kinase 24 (Homo sapiens, UniProt Q9Y6E0); experiment: MST3(ST24LGC1) Takeda global kinase panel
[26] = target: Casein kinase I isoform epsilon (Homo sapiens, UniProt P49674); experiment: CK1epsilon(CS1ELGI5) Takeda global kinase panel
[27] = target: Receptor-interacting serine/threonine-protein kinase 2 (Homo sapiens, UniProt O43353); experiment: RIPK2(RIP2LGI1) Takeda global kinase panel
Ephrin type-B receptor 3 = Ephrin type-B receptor 3 (Homo sapiens, UniProt P54753); experiment: EphB3(EPB3LGRJ) Takeda global kinase panel
[28] = target: Sodium-dependent dopamine transporter (Homo sapiens) (UniProt Q01959); conditions: Compound concentration 10.0 uM
[29] = target: Serine/threonine-protein kinase 26 (Homo sapiens, UniProt Q9P289); experiment: MST4(MST4LGC1) Takeda global kinase panel
[30] = target: T1, 5-hydroxytryptamine receptor 3A (Homo sapiens) (UniProt P46098); experiment: Inhibition of Serotonin (5-Hydroxytryptamine) 5-HT3 at 10 µM in the Eurofins-Panlabs radioligand binding assay (Eurofins_assay_271910); parameters: ligand concentration 0.69 nM; conditions: Compound concentration 10.0 uM
T1 sequence (whole entry): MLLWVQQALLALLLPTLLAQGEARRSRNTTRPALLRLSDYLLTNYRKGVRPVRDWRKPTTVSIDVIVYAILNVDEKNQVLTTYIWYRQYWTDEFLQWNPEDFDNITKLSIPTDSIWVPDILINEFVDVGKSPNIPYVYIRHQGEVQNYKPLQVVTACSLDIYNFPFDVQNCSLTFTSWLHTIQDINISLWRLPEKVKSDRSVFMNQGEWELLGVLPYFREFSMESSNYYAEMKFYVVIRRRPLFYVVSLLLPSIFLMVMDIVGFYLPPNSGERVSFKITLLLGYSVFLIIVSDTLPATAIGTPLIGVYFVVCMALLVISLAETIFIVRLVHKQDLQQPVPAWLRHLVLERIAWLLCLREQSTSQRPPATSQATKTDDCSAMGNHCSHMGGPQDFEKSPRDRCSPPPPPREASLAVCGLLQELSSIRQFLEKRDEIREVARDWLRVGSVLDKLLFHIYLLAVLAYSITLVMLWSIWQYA

[31] = target: Serine/threonine-protein kinase PINK1, mitochondrial (Homo sapiens, UniProt Q9BXM7); experiment: PINK1(PIN1PHRE) Takeda global kinase panel
SRSF protein kinase 2 = SRSF protein kinase 2 (Homo sapiens, UniProt P78362); experiment: SRPK2(SRP2IGRL) Takeda global kinase panel
[32] = target: Phosphorylase b kinase gamma catalytic chain, skeletal muscle/heart isoform (Homo sapiens, UniProt Q16816); experiment: PhKgamma1(PHG1LHY1) Takeda global kinase panel
[33] = target: Epidermal growth factor receptor (Homo sapiens, UniProt P00533); experiment: EGFR(EGFRMGB1) Takeda global kinase panel
Epidermal growth factor receptor, sequence (P00533 whole entry): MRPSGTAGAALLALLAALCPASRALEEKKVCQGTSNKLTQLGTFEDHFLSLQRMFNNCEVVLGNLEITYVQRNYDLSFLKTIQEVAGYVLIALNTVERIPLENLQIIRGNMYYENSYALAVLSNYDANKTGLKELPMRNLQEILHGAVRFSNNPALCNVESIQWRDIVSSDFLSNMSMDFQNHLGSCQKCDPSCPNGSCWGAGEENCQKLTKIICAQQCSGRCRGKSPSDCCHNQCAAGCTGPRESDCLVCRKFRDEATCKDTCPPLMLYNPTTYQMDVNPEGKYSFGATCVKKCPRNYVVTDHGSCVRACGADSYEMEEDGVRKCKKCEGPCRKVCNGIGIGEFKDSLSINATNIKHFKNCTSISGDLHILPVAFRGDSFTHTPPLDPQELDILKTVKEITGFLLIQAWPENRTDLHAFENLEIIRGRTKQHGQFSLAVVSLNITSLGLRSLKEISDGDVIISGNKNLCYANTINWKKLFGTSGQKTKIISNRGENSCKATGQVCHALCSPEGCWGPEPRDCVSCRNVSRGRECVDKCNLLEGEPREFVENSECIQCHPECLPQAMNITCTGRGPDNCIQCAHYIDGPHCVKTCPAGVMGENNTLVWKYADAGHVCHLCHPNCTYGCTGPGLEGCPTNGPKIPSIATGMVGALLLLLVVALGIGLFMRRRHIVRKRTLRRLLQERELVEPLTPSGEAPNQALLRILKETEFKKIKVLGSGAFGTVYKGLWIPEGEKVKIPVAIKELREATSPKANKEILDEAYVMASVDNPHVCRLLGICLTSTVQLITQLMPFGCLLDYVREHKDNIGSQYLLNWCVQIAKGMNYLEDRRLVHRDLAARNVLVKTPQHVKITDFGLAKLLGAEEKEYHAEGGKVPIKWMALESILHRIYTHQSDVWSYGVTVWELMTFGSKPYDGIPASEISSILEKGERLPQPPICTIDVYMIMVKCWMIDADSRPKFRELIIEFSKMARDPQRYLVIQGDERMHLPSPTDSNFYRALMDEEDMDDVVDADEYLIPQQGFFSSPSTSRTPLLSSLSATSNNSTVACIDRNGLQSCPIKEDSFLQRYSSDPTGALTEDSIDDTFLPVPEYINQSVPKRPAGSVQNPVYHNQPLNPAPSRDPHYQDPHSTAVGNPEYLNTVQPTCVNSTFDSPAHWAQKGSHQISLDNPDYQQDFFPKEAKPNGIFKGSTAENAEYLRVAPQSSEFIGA

[34] = target: Mitogen-activated protein kinase 11 (Homo sapiens, UniProt Q15759); experiment: p38beta(MP11LGI1) Takeda global kinase panel

Row | Compound | inhibition [1] | IC50 [2] | inhibition [3] | IC50 [4] | IC50 [5] | IC50 [6] | IC50 [7] | IC50 [8] | IC50 [9] | IC50 [10] | inhibition [11] | IC50 [12] | IC50 [13] | IC50 [14] | IC50 [15] | IC50 [16] | IC50 [17] | inhibition [18] | IC50 [19] | IC50 [20] | other results
1 | CN1C(=O)[C@@H](N2CCc3cn(Cc4ccccc4)nc3C2=O)COc2ccccc21 [TP-030-1] | 0% | 1000 nM | -1% | 1000 nM | 1000 nM | 1000 nM | 1000 nM | 1000 nM | 1000 nM | 1000 nM | 27% | 1000 nM | 1000 nM | 1000 nM | 1000 nM | 1000 nM | 1000 nM | 5% | 1000 nM | 1000 nM | IC50 [21]: 1000 nM; IC50 [22]: 1000 nM; IC50 [23]: 1000 nM; IC50 [24]: 4200 nM (active); IC50 [25]: 1000 nM; IC50 [26]: 1000 nM; IC50 [27]: 1000 nM; IC50 (Ephrin type-B receptor 3): 1000 nM; inhibition [28]: 29%; IC50 [29]: 1000 nM; inhibition [30]: 6%; IC50 [31]: 1000 nM; IC50 (SRSF protein kinase 2): 1000 nM; IC50 [32]: 1000 nM; IC50 [33]: 1000 nM; IC50 [34]: 1000 nM
2 | CN1C(=O)[C@@H](N2CCc3cn(CC4CCS(=O)(=O)CC4)nc3C2=O)COc2ccccc21 [TP-030n] | 0% | 1000 nM | -7% | 1000 nM | 1000 nM | 1000 nM | 1000 nM | 1000 nM | 1000 nM | 1000 nM | 11% | 1000 nM | 1000 nM | 1000 nM | 1000 nM | 1000 nM | 1000 nM | -5% | 1000 nM | 1000 nM | IC50 [21]: 1000 nM; IC50 [22]: 1000 nM; IC50 [23]: 1000 nM; IC50 [24]: > 10000 nM (not active); IC50 [25]: 1000 nM; IC50 [26]: 1000 nM; IC50 [27]: 1000 nM; IC50 (Ephrin type-B receptor 3): 1000 nM; inhibition [28]: 10%; IC50 [29]: 1000 nM; inhibition [30]: 16%; IC50 [31]: 1000 nM; IC50 (SRSF protein kinase 2): 1000 nM; IC50 [32]: 1000 nM; IC50 [33]: 1000 nM; IC50 [34]: 1000 nM

Source: ChEMBL document CHEMBL4507327 (2021)
